Source: a melting point compilation (Tetko et al.; mined from patent text by program, amines drawn as free bases though some values may be those of a salt)

Structure (SMILES) | melting point [°C]
CCc1cc2c(c(CC)n1)CCC(=O)N2Cc1ccc(-c2ccccc2-c2nnn(C(c3ccccc3)(c3ccccc3)c3ccccc3)n2)cc1 | 165 to 167
NCc1c(-c2ccc(O)cc2)nnn1-c1ccc(C(F)(F)F)cc1Cl | 96.5 to 98.9
CCCCCCCCCCCCCCCCCCOc1cccc(C(=O)O)c1OCCCOc1ccc(O)cc1 | 81 to 83
CCCCSc1nc(=O)n(C(=O)NC)s1 | 102
CN(C(=O)c1ccc2nonc2c1)C1CCSCC1 | 155 to 156
Cc1cc(F)cc2c1CC/C2=C\C(N)=O | 178 to 180
C[C@H](Cc1ccc2c(c1)cc(C(=O)O)n2CC1CC1)NC[C@H](O)c1cccc(Cl)c1 | 207 to 209
CCCN1CCCC2(Cc3ccccc3NC2=O)C1=O (stereo not given) | 151 to 154
O=C(NCc1ccccc1)c1cc([N+](=O)[O-])ccc1N[C@H]1CC[C@H](O)CC1 | 233 to 234
CC(C)(C)[Si](C)(C)OC[C@H]1OC[C@@H](n2cnc3cc(Cl)c(Cl)cc32)C[C@@H]1O | 143 to 155
Cc1nnc(F)c(-c2c(F)cc(F)cc2F)c1-c1ccc(Cl)cc1 | 114 to 115
CN(C)C1CCN(c2nc(N3CCOCC3)c3ncnc(N(Cc4ccccc4)Cc4ccccc4)c3n2)CC1 | 163
CN(N=Cc1ccccc1C(=O)O)c1nc2ccccc2o1 | 253 to 255
Cc1ccc(-c2cc(C)c3c(c2)C(C)CC(=O)N3)c(C)n1 (stereo not given) | 146 to 148
Cc1ccc(C2(C=O)C3CC4CC(C3)CC2C4)cc1 (stereo not given) | 93 to 97
OCCn1cc(-c2ccc3ncn(Cc4ccc5ncccc5c4)c3n2)cn1 | 160 to 163
COC(C)c1ccc(-c2ccc(O)cc2)cc1 (single isomer, unassigned; (+)) | 174 to 175
CCN(CCO[N+](=O)[O-])C(=O)COC(=O)[C@@H](C)c1ccc2cc(OC)ccc2c1 | 60 to 61
CN(c1ccc(OC(F)(F)F)cc1)C1CCN(C[C@@]2(C)Cn3cc([N+](=O)[O-])nc3O2)CC1 | 133 to 134
Cc1cc(COc2nn(Cc3ccccc3)cc2C(=O)O)ccc1OCc1nc(-c2ccco2)oc1C | 176 to 177
O=C1c2cccc3cccc(c23)C(=O)N1C1OC(CO)C(O)C(O)C1O (stereo not given) | 285 to 286
O=C(NCc1ccccc1)c1ccc(OC2SCC(O)C(O)C2O)cn1 (stereo not given) | 89 to 91
O=C(O)Cc1c(C(=O)O)c2cc(Oc3ccc(C(F)(F)F)cc3)ccc2n1-c1ccccc1 | 255 to 257
CC(C)c1nn(-c2ccc(C(F)(F)F)cn2)cc1CCCOc1cc(CCC(=O)O)n(C2CCCCC2)n1 | 166 to 167

Structure (SMILES) | melting point [°C]
CC#CC1(O)CCC2C3CCC4=CC(=O)CCC4C3CCC21CC (stereo not given) | 124 to 125
COCOCc1nc(N)c2nccnc2n1 | 129 to 131
COC(=O)c1ccc(Cl)c(Cn2nc(C(F)(F)F)n(C)c2=O)c1Cl | 109
CO/C=C(/C(=O)OC)c1ccccc1C=CCO | 78 to 80
O=C(Nc1ccc2cc(CN3CCCC3)cnc2c1F)c1ccc(-c2ccccc2)cc1F | 136 to 137
Cc1ccc2nc(-c3ccccc3)nc(Cl)c2c1 | 111 to 113
Nc1sc2c(c1C(=O)c1ccc(-c3ccccc3)cc1)CCN(C(=O)OCc1ccccc1)C2 | 83 to 85
CCOC(=O)C1=C(COCc2cc(=O)[nH]c(N)n2)NC(C)=C(C(=O)OC)C1c1ccccc1Cl (stereo not given) | 185 to 187
CC(C)=CCOc1ccc(C(=O)C=Cc2c[nH]c3ccccc23)c(O)c1 | 228 to 230
CCCCCCCCCCOc1ccc(C(O)C(O)c2ccc(C(=O)OC)cc2)nc1CCC(=O)OC (mixture of isomers) | 88 to 92
CCOC(=O)C[C@@H]1c2ccccc2O[C@H]1c1ccccc1 (relative stereo) | 42 to 43
Cn1nc(N)c2sc3ncccc3c21 | 194 to 196
Clc1ncccc1-c1ncoc1-c1cccnc1Cl | 157 to 158
CC(C)(O)C(O)c1ccc(-c2ccc(/C(=C/C3CCOCC3)c3ccc(S(=O)(=O)C4CC4)cc3)[nH]2)nc1 (stereo not given) | 196 to 197
CN(C)c1cccc(CC(=O)Cc2cccc(Cl)c2)c1 | 58 to 60
Cc1cnc(N)c2nc(C)n(CC(C)C)c12 | 178 to 180
COc1ccc(C2CNC(=O)O2)cc1OC1CCCC1 (stereo not given) | 111 to 112
C#Cc1cccc(Nc2ncnc3cc(OCCOC(C)=O)c(OCCOC)cc23)c1 | 134 to 135
c1ccc(COc2ccc(-c3cocn3)cc2)cc1 | 101 to 102
N#Cc1oc(-c2ccc(Cl)cc2)c2ccccc12 | 128 to 130
CC(=O)c1ccc(N(C)C)c(S(N)(=O)=O)c1 | 184 to 185
COc1ccc2c(c1OC)CCC(NC(=O)CCCCC(=O)NCCc1ccccc1)C2 (stereo not given) | 191 to 193
CN(C)C=C(C=O)c1ccccc1Cl | 86.5 to 88.5
Cc1cccc(C(C)(C)C)c1NC(=O)NCC1(c2ccccc2)CCCCC1 | 196 to 197

Structure (SMILES) | melting point [°C]
O=C1CCC(c2ccc(CCCCNC(=O)c3cccnc3)cc2)=NN1 | 178 to 179
CCOc1ccccc1NC(=O)C(C)(C)CCCOc1cc(C)ccc1C | 59 to 60
COC(=O)c1nccnc1Nc1ccc(Cl)cc1[N+](=O)[O-] | 191 to 192
O=C(/C=C/C=C(c1cccc(F)c1)c1cccc(F)c1)NCCCCc1cccnc1 | 103 to 104
Nc1ccc2c(=O)[nH]c(=O)n(CCCCN3CCC(OC(c4ccccc4)c4ccccc4)CC3)c2c1 | 162 to 164
CO/N=C(\C)[C@H]1CC[C@H]2[C@@H]3CCC4=CC(=O)CC[C@]4(C)[C@H]3CC[C@]12C | 180 to 182
Cc1c(Sc2cccnc2)sc2ccc(C(=O)O)cc12 | 220 to 222
CCOC(=O)C(Cc1ccc(OCCN2CCC(C)(C)c3cc(C(=NO)c4ccccc4)ccc32)cc1)OCC (stereo not given) | 46 to 48
Cc1nccn1-c1ccc(COc2cccc(C3(C#N)CCOCC3)c2)cc1 | 153 to 154
Fc1ccc2scc(Br)c2c1 | 79 to 80
CCOC(=O)c1c(C(F)(F)F)nc(OCC)c(C(N)=O)c1OCC | 103 to 105
NNC1CCC(c2ccccc2F)c2cc(Cl)ccc2N1 (stereo not given) | 213 to 215
CS(=O)c1ncccc1C(=O)c1cnoc1C1CC1 (stereo not given) | 148 to 152
CCNC(=O)c1ccc(-n2nnc(C(=O)NC3CC3)c2CCCCCF)cc1 | 150
Cc1csc2c(Sc3nnc(N)s3)ncnc12 | 221 to 223
C#Cc1c(C#N)nn(-c2c(Cl)cc(C(F)(F)F)cc2Cl)c1Br | 134 to 135
CC(C)n1nc(-c2nc(C#Cc3cncn3C)c(N)nc2-c2ccccc2)ccc1=O | > 250
O=[N+]([O-])c1ccccc1COc1ccc2ncc3c(c2c1)CCCC3 | 153 to 154
CC(C(=O)NCC(F)(F)C(F)(F)F)C(=O)NC1C(=O)N(C)c2c(F)cccc2OC1C (stereo not given) | 126 to 134
COc1ncccc1NC(=O)C1(O)CCCn2c1nc(-c1ccncn1)cc2=O (racemic) | 208 to 210
CC(C)c1ccc2c(c1)C(=O)CC21CNC(=O)C1 (stereo not given) | 165 to 167
CC(C)Nc1cccnc1N1CCN(C(=O)c2ccc(C(=O)N[C@H](CO)c3ccccc3)cc2)CC1 | 93 to 95
